ChEMBL document CHEMBL3217509, “Discovery of an HIV integrase inhibitor with an excellent resistance profile” (Medchemcomm, 2013)

What was measured:
[1] = Intrinsic clearance in human hepatocytes assessed assessed per million of cells by LC-MS/MS analysis; assay type: ADME, cell-based, Hepatocyte; settings: read-out: CLH
[2] = Intrinsic clearance in human liver microsomes assessed per mg of protein by LC-MS/MS analysis in presence of UDPGA; assay type: ADME; settings: read-out: CLH
[3] = Intrinsic clearance in human liver microsomes assessed per mg of protein by LC-MS/MS analysis; assay type: ADME; settings: read-out: CLH
[4] = tested on: Human immunodeficiency virus 1; experiment: Antiviral activity against HIV1 NL4-3 infected in human MT2 cells after 3 days by human JC53BL cell-based beta-galactosidase reporter gene assay; assay type: functional, organism-based; settings: Human immunodeficiency virus 1, NL4-3, JC53BL, 72 h

SMILES | hepatocyte CLint [1] [µL/min/1e6 cells] | microsomal CLint [2] [µL/min/mg] | microsomal CLint [3] [µL/min/mg] | IC50 [4] [nM]
O=C1c2ncc3c(ccn3Cc3ccc(F)cc3)c2CCN1O | 29.6 | 24 | 19.2 | –
COc1cc(F)ccc1Cn1ccc2c3c(ncc21)C(=O)N(O)C(C)(C)C3 | 37.7 | 19.7 | 17 | 3.9
CC1(C)CN(O)C(=O)c2ncc3c(ccn3Cc3ccc(F)cc3)c21 | 64.7 | 170 | – | 1
O=C1c2ncc3c(ccn3Cc3ccc(F)cc3OC(F)F)c2CCN1O | 17 | 5.8 | 15.4 | 5

Other lines, results leading:

hepatocyte CLint [1] [µL/min/1e6 cells] | microsomal CLint [2] [µL/min/mg] | microsomal CLint [3] [µL/min/mg] | IC50 [4] [nM] | SMILES
14.1 | 80.2 | 21.3 | 451 | Cc1nc2c(ncc3c2ccn3Cc2ccc(F)cc2)c(=O)n1O
28.8 | 4.8 | < 8 | > 7480 | COc1cc(F)ccc1Cn1ccc2c3c(ncc21)C(=O)N(O)C3(C)C
23.2 | 5 | < 8 | 4.1 | CCOc1cc(F)ccc1Cn1ccc2c3c(ncc21)C(=O)N(O)CC3
